pIC50: −log10 of the molar value. Like-named read-outs stand apart in the source and are kept apart here.
How the values were obtained:
Format in all cases: cell-based
[1] = test system: store-operated Ca^2+ entry in HEK 651 HS1; test: Store-operated Ca2+ entry in HEK 651 HS1 cell line; conditions: for Effect on amplitude of SOCE peak: % of inhibition (−) or activation
Description: (§1) The effects of the molecules developed were tested on PLP-B lymphocytes. Store-operated Ca^2+ entry was induced by depletion of Endoplasmic Reticulum Ca^2+ stores (ER Ca^2+ stores) with thapsigargin (Tg) in a Ca^2+-free medium and measured following the addition of 1.8 mM of CaCl2) in the extracellular medium. The results are compared to the results obtained for known SOCE inhibitors SKF-96365, GSK-7975A, Synta 66.
(§2) Then, effects of the molecule that gave the best results in this test (i.e., molecule 6αa) were assessed in two cancer cell lines, namely: HEK 293 and HEK 651 HS1 tumor cell lines.

PANC-1 cells [2] = test: PANC-1 cytotoxicity (Cell Tox green assay); conditions: 5 and 20 μM, 24 hours
Description: (§3) Analysis of Cell Proliferation. For PANC-1 cell proliferation and cell cytotoxicity measurements, […] were seeded in 96 well-plates in 100 μL of DMEM medium. Cells were incubated for 24 hours at 37° C. with 3 different SOCE inhibitors (GSK-7975-A, SKF-93365 and 6αa) at 2 different concentrations (5 and 20 μM) compared to DMSO and untreated cells. Cell proliferation was evaluated using the Cell Titer kit proliferation assay (Promega). Cytotoxicity was evaluated using the Cell Tox green cytotoxicity assay (Promega). All the kits were used following manufacturer recommendations and using a plate reader.

JOK cells [3] = test: JOK cell viability and apoptosis assays (LIVE/DEAD, Annexin V-FITC/PI)
Description: Cell Viability Assays. JOK cells were treated with test compounds (GSK-7975-A, SKF-93365 and 6αa) or solvent for 48 hours. JOK cells viability was then assessed using LIVE/DEAD cell viability assays kit (Abcam). Differentially labeled live and dead cells with fluorescent dyes are analyzed by flow cytometry.
Apoptosis Assay. Apoptosis of JOK cells were determined by Annexin V-FITC/PI staining (Biolegend) using flow cytometry. The percentage of annexin V-FITC and propidium iodide-[…] cells were assessed using Kaluza 1.3.

JOK cells [4] = test: JOK cell cycle analysis (PI staining, flow cytometry)
Description: Cell Cycle Analysis. JOK cells were incubated with or without test compounds (GSK-7975-A, SKF-93365 and 6αa) for 48 hours and then washed with cold PBS and fixed with 70% ethanol for 30 minutes at room temperature. Cell cycle was analyzed using propidium iodide (PI). Cell-cycle distribution was determined by PI-staining using flow cytometry and analyzed by Kaluza 1.3.

[5] = test system: store-operated Ca^2+ entry in HEK 293; test: Store-operated Ca2+ entry in HEK 293 cell line; conditions: for Effect on amplitude of SOCE peak: % of inhibition (−) or activation
Description: as §1, §2

PANC-1 cells [6] = test: PANC-1 cell proliferation (Cell Titer kit); conditions: 5 and 20 μM, 24 hours, to a greater extent than GSK-7975A and SKF-93365
Description: as §3

JOK cells [7] = test: JOK cell proliferation assay
Description: Cell Proliferation Assays. Cultured JOK cells were seeded in 96-well culture plates with or without inhibitors. After 48 hours, cell proliferation was assessed using WST-8 assay (Sigma Aldrich). The absorbance was read at 450 nm on a plate reader.

JOK cells [8] = test: Migration of JOK cells through HUVEC in transwells; conditions: 5 or 20 μM
Description: Migration Protocol. Migration chambers (transwells) (Transwell 5.0 m polycarbonate membrane Costar) were coated overnight (37° C., 5% CO2) with 100 μL of fibronectine solution containing BSA (1 mg/ml) and LHC Basal Medium. Primary HUmbilical Vein Endothelial Cells (HUVEC) were seeded in each transwell (100 000/well) and cultured for 24 hours (37° C., 5% CO2). To evaluate B cell migration, JOK cells were added (300 000/well) to each transwell upper chamber containing RPMI 1640 medium (BioWest) containing 0.5% BSA and SDF1 (200 ng/ml) was added in the bottom chamber. Cells were cultures in the presence or absence of a test compound (GSK-7975-A, SKF-93365 and 6αa) or solvent. After 24 hours (37° C., 5% CO2), migrated cells were collected in the bottom chambers and counted by flow cytometry. The percentages of migration were calculated for each experimental collection.

[9] = test system: store-operated Ca^2+ entry in PLP-B lymphocytes; test: Store-operated Ca2+ entry after thapsigargin depletion of ER Ca2+ stores in PLP-B lymphocytes; conditions: for inhibition at 0.1 µM / inhibition at 1 µM / inhibition at 10 µM / inhibition at 50 µM / inhibition at 100 µM: PLP-B lymphocytes, % of inhibition (−) or activation
Description: as §1

SOCE in JOK B cells = test: Intracellular calcium levels / SOCE in JOK B cells (Fura-2AM, FlexStation 3)
Description: Intracellular calcium levels were monitored at 37° C. using the FlexStation 3™ (Molecular Devices, Berkshire, UK), a fluorescence plate reader measuring time-resolved intracellular Ca^2+ concentration in a 96-well format with cells loaded with the dual-wavelength fluorescent calcium-sensitive dye Fura-2AM.
Intracellular Ca^2+ stores were depleted with 2 μM Thapsigargin (an inhibitor of ER SERCA pumps) under Ca^2+-free conditions to determine the magnitude of intracellular Ca^2+ release. Next, the cells were returned to Ca^2+-containing Hepes-buffered solution to measure SOCE. The magnitude of SOCE was estimated as the maximal values of normalized fluorescence ratio following Ca^2+ re-addition.

HUVEC cells = test: HUVEC cell death (Annexin/Propidium Iodide, flow cytometry); conditions: HUVEC (FIG. 8)
Description: FIG. 8. In vitro Effects of 6αa, GSK-7975-A and SKF-93365 on HUVEC Cell Death. […] Cell death was analyzed by flow cytometry following Annexin/Propidium Iodide labeling. Percentages of living cells, necrotic cells and apoptotic cells submitted to GSK-7975A (A), SKF-93365 (B), and 6αa (DAD 3-473) (C) treatment were normalized to the DMSO treatment conditions. Histograms present the amounts of apoptotic cells (annexin/PI positive cells) detected in each experimental condition after treatment with GSK-7975A (D), SKF-93365 (E), and 6αa (DAD 3-473) (F). Data are expressed as mean±SEM of n observations (n=2). Data are analyzed with non parametric Mann Withney analysis, *P<0.05, **P<0.01 and ***P<0.001.

[10] = Lymphocyte, DMSO control 100%, read-out: Effect on amplitude of SOCE Peak
[11] = Lymphocyte, thapsigargin (Tg) peak, read-out: Effect on amplitude of Tg Peak

COc1ccc(CCOc2ccc(CCn3cnc4ccccc43)cc2)cc1 [6αa DAD 3-473, 1-[4-(4-Methoxyphenethoxy)phenethyl]-1H-benzo[d]imidazole]
Effect on amplitude of SOCE peak ([1]; 5 μM): −5%
Effect on amplitude of SOCE peak ([1]; 10 μM): −35%
Effect on amplitude of SOCE peak ([1]; 50 μM): −86%
pIC50 ([1]; average of three assays, ±0.5 μM): 4.60
cytotoxicity in cancer PANC-1 cells (PANC-1 cells [2]): induces cytotoxicity
death of B cells (JOK cells [3]; JOK B cells (FIG. 7)): does not induce death
apoptosis or necrosis of cells (JOK cells [3]; JOK B cells (FIG. 7), 5 or 20 μM, treated for 48 hours): do not induce apoptosis or necrosis
cell survival (JOK cells [3]; JOK cells): without significant reduction
cell cycle (JOK cells [4]): affects cell cycle
Effect on amplitude of SOCE peak ([5]; 1 μM): 8%
Effect on amplitude of SOCE peak ([5]; 5 μM): −15%
Effect on amplitude of SOCE peak ([5]; 10 μM): −73%
Effect on amplitude of SOCE peak ([5]; 50 μM): −91%
pIC50 ([5]; Homo sapiens, HEK293, average of three assays, ±0.5 μM): 5.29
PANC-1 proliferation (PANC-1 cells [6]): significantly reduces
JOK proliferation (JOK cells [7]): significantly reduces
transendothelial migration through HUVEC of JOK cells (JOK cells [8]): does significantly inhibit
inhibition at 0.1 µM [9, 10]: 3%
inhibition at 0.1 µM [9, 11]: -5%
inhibition at 1 µM [9, 10]: -2%
inhibition at 1 µM [9, 11]: -7%
inhibition at 10 µM [9, 10]: 24%
inhibition at 10 µM [9, 11]: 5%
inhibition at 50 µM [9, 10]: 79%
inhibition at 50 µM [9, 11]: 5%
inhibition at 100 µM [9, 10]: 81%
inhibition at 100 µM [9, 11]: 2%
pIC50 ([9]; Lymphocyte, SOCE in PLP-B lymphocytes, average of three assays, ±0.5 μM): 4.81
effectiveness as modulator that inhibits SOCE without inhibiting Ca2+ release from ER stores ([9]; comparison of the series tested): best candidate
amplitude of Ca2+ release from the endoplasmic stores (SOCE in JOK B cells): not found to be significantly affected
amplitude of SOCE (SOCE in JOK B cells; 5 and 20 μM, compared to control, irrespective of incubation time (5, 15, 30 minutes, 1 hour)): significantly reduces
death of HUVEC cells (HUVEC cells): does not induce death
apoptosis or necrosis of cells (HUVEC cells; 5 or 20 μM, treated for 48 hours): do not induce apoptosis or necrosis

— patent US12686664B2, “SOCE inhibitors and therapeutic uses thereof” (Institut National de la Santé et de la Recherche Médicale …, priority 2020, dated 2026)
